From US9487483B2, “Complement pathway modulators and uses thereof” (priority 2012, dated 2016)

Biological target: Recombinant human factor D (Homo sapiens (Human), UniProt P00746)
Experiment: biochemical
Format: biochemical
Settings: Factor D inhibition data using Method 1; substrate Z-Lys-thiobenzyl, fluorescence readout; read-out: IC50
Method: Human Complement Factor D Assay: Method 1
Recombinant human factor D (expressed in E. coli and purified using standard methods) at 10 nM concentration is incubated with test compound at various concentrations for 1 hour at room temperature in 0.1 M Hepes buffer, pH 7.5, containing 1 mM MgCl2, 1 M NaCl and 0.05% CHAPS. […] IC50 values are calculated from percentage of inhibition of complement factor D-activity as a function of test compound concentration.

Recombinant human factor D, sequence (P00746 26-253): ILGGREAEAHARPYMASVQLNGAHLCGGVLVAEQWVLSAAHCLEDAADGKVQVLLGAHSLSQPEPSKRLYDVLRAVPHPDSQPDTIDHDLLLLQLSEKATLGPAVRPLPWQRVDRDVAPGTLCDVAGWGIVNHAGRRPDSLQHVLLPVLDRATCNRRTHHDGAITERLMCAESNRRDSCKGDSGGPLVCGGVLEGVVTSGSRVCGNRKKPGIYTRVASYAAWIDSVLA

| Compound | IC50 |
| --- | --- |
| CC1(C)CCC[C@@H](NC(=O)[C@@H]2C[C@H]3C[C@H]3N2C(=O)Cn2nc(C(N)=O)c3ccc(F)cc32)C1 [Example 60, 1-{2-[(1R,3S,5R)-3-((R)-3,3-Dimethyl-cyclohexylcarbamoyl)-2-aza-bicyclo[3.1.0]hex-2-yl]-2-oxo-ethyl}-6-fluoro-1H-indazole-3-carboxylic acid amide] | 22 nM |
| CC1(C)CCC[C@@H](NC(=O)[C@@H]2C[C@H]3C[C@H]3N2C(=O)Cn2nc(C(N)=O)c3ccc(Cl)cc32)C1 [Example 62, 6-Chloro-1-{2-[(1R,3S,5R)-3-((R)-3,3-dimethyl-cyclohexylcarbamoyl)-2-aza-bicyclo[3.1.0]hex-2-yl]-2-oxo-ethyl}-1H-indazole-3-carboxylic acid amide] | 24 nM |
| Cc1cc2c(C(N)=O)nn(CC(=O)N3[C@@H]4C[C@@H]4C[C@H]3C(=O)N[C@@H]3CCCC(C)(C)C3)c2cn1 [Example 63, 1-{2-[(1R,3S,5R)-3-((R)-3,3-Dimethyl-cyclohexylcarbamoyl)-2-aza-bicyclo[3.1.0]hex-2-yl]-2-oxo-ethyl}-5-methyl-1H-pyrazolo[3,4-c] pyridine-3-carboxylic acid amide] | 49 nM |
| CCc1cc2c(C(N)=O)nn(CC(=O)N3[C@@H]4C[C@@H]4C[C@H]3C(=O)N[C@@H]3CCCC(C)(C)C3)c2cn1 [Example 64, 1-{2-[(1R,3S,5R)-3-((R)-3,3-Dimethyl-cyclohexylcarbamoyl)-2-aza-bicyclo[3.1.0]hex-2-yl]-2-oxo-ethyl}-5-ethyl-1H-pyrazolo[3,4-c]pyridine-3-carboxylic acid amide] | 24 nM |
| CC(=O)c1cn(CC(=O)N2[C@@H]3C[C@@H]3C[C@H]2C(=O)N[C@@H]2CCCC(C)(C)C2)c2nnccc12 [Example 66, (1R,3S,5R)-2-[2-(5-Acetyl-pyrrolo[2,3-c]pyridazin-7-yl)-acetyl]-2-aza-bicyclo[3.1.0] hexane-3-carboxylic acid ((R)-3,3-dimethyl-cyclohexyl)-amide] | 1210 nM |
| CO[C@@H]1CCC[C@@H](NC(=O)[C@@H]2C[C@H]3C[C@H]3N2C(=O)Cn2nc(C(C)=O)c3cc(OCc4ncccn4)ccc32)C1 [Example 69, (1R,3S,5R)-2-{2-[3-Acetyl-5-(pyrimidin-2-ylmethoxy)-indazol-1-yl]-acetyl}-2-aza-bicyclo [3.1.0]hexane-3-carboxylic acid ((1R,3R)-3-methoxy-cyclohexyl)-amide] | 143 nM |
| CC[C@@H]1CCC[C@H](NC(=O)[C@@H]2C[C@H]3C[C@H]3N2C(=O)Cn2nc(C(N)=O)c3ccncc32)C1 [Example 72, 1-{2-[(1R,3S,5R)-3-((1S,3R)-3-Ethyl-cyclohexylcarbamoyl)-2-aza-bicyclo[3.1.0]hex-2-yl]-2-oxo-ethyl}-1H-pyrazolo[3,4-c]pyridine-3-carboxylic acid amide] | 1700 nM |
| CC[C@H]1CCC[C@@H](NC(=O)[C@@H]2C[C@H]3C[C@H]3N2C(=O)Cn2nc(C(N)=O)c3ccncc32)C1 [Example 73, 1-{2-[(1R,3S,5R)-3-((1R,3S)-3-ethyl-cyclohexylcarbamoyl)-2-aza-bicyclo[3.1.0]hex-2-yl]-2-oxo-ethyl}-1H-pyrazolo[3,4-c]pyridine-3-carboxylic acid amide] | 29 nM |
| CC1(C)CCC[C@@H](NC(=O)[C@@H]2C[C@@H](F)CN2C(=O)Cn2nc(C(N)=O)c3ccccc32)C1 [Example 82, 1-{2-[(2S,4R)-2-((R)-3,3-Dimethyl-cyclohexylcarbamoyl)-4-fluoro-pyrrolidin-1-yl]-2-oxo-ethyl}-1H-indazole-3-carboxylic acid amide] | 38 nM |
| CC[C@H]1CCC[C@@H](NC(=O)[C@@H]2C[C@H]3C[C@H]3N2C(=O)Cn2nc(C(N)=O)c3cc(C)ncc32)C1 [Example 83, 1-{2-[(1R,3S,5R)-3-((1R,3S)-3-Ethyl-cyclohexylcarbamoyl)-2-aza-bicyclo[3.1.0]hex-2-yl]-2-oxo-ethyl}-5-methyl-1H-pyrazolo[3,4-c]pyridine-3-carboxylic acid amide] | 50 nM |
| CO[C@H]1[C@@H](C(=O)N[C@@H]2CCCC(C)(C)C2)N(C(=O)Cn2nc(C(N)=O)c3ccccc32)C[C@@H]1F [Example 84, 1-{2-[(2S,3S,4S)-2-((R)-3,3-Dimethyl-cyclohexylcarbamoyl)-4-fluoro-3-methoxy-pyrrolidin-1-yl]-2-oxo-ethyl}-1H-indazole-3-carboxylic acid amide] | 60 nM |
| CO[C@H]1[C@@H](C(=O)N[C@H]2CCCC(C)(C)C2)N(C(=O)Cn2nc(C(N)=O)c3ccccc32)C[C@@H]1F [Example 85, 1-{2-[(2S,3S,4S)-2-((S)-3,3-Dimethyl-cyclohexylcarbamoyl)-4-fluoro-3-methoxy-pyrrolidin-1-yl]-2-oxo-ethyl}-1H-indazole-3-carboxylic acid amide] | 585 nM |
| CC1(C)CCC[C@@H](NC(=O)[C@@H]2[C@@H]3C[C@@H]3CN2C(=O)Cn2nc(C(N)=O)c3ccncc32)C1 [Example 86, 1-{2-[(1R,2S,5S)-2-((R)-3,3-Dimethyl-cyclohexylcarbamoyl)-3-aza-bicyclo[3.1.0]hex-3-yl]-2-oxo-ethyl}-1H-pyrazolo[3,4-c]pyridine-3-carboxylic acid amide] | 58 nM |
| CC1(C)CCC[C@H](NC(=O)[C@@H]2[C@@H]3C[C@@H]3CN2C(=O)Cn2nc(C(N)=O)c3ccncc32)C1 [Example 87, 1-{2-[(1R,2S,5S)-2-((S)-3,3-Dimethyl-cyclohexylcarbamoyl)-3-aza-bicyclo[3.1.0]hex-3-yl]-2-oxo-ethyl}-1H-pyrazolo[3,4-c]pyridine-3-carboxylic acid amide] | 6620 nM |
| CO[C@H]1CCC[C@@H](NC(=O)[C@@H]2C[C@H]3C[C@H]3N2C(=O)Cn2nc(C(C)=O)c3cc(OCc4ncccn4)ccc32)C1 [Example 94, (1R,3S,5R)-2-{2-[3-Acetyl-5-(pyrimidin-2-ylmethoxy)-indazol-1-yl]-acetyl}2-aza-bicyclo[3.1.0]hexane-3-carboxylic acid ((1R,3S)-3-methoxy-cyclohexyl)-amide] | 138 nM |
| CC(=O)c1nn(CC(=O)N2[C@@H]3C[C@@H]3C[C@H]2C(=O)N[C@@H]2CCC[C@H](C(F)(F)F)C2)c2ccc(OCc3ncccn3)cc12 [Example 95, (1R,3S,5R)-2-{2-[3-Acetyl-5-(pyrimidin-2-ylmethoxy)-indazol-1-yl]-acetyl}-2-aza-bicyclo[3.1.0]hexane-3-carboxylic acid ((1R,3S)-3-trifluoromethyl-cyclohexyl)-amide] | 25 nM |
| CC(=O)c1nn(CC(=O)N2[C@@H]3C[C@@H]3C[C@H]2C(=O)N[C@@H]2CCC[C@H](C)C2)c2ccc(OCc3ncccn3)cc12 [Example 96, (1R,3S,5R)-2-{2-[3-Acetyl-5-(pyrimidin-2-ylmethoxy)-indazol-1-yl]-acetyl}-2-aza-bicyclo[3.1.0]hexane-3-carboxylic acid ((1R,3S)-3-methyl-cyclohexyl)-amide] | 90 nM |

Same assay, conditions: read-out: IC50

| Compound | IC50 |
| --- | --- |
| Cc1nccc2c(C(N)=O)nn(CC(=O)N3[C@@H]4C[C@@H]4C[C@H]3C(=O)N[C@@H]3CCCC(C)(C)C3)c12 [Example 65, 1-{2-[(1R,3S,5R)-3-((R)-3,3-Dimethyl-cyclohexylcarbamoyl)-2-aza-bicyclo[3.1.0]hex-2-yl]-2-oxo-ethyl}-7-methyl-1H-pyrazolo[3,4-c]pyridine-3-carboxylic acid amide] | 38 nM |
| CC1(C)CCC[C@H](NC(=O)[C@@H]2C[C@@H](F)CN2C(=O)Cn2nc(C(N)=O)c3ccncc32)C1 [Example 70, 1-{2-[(2S,4R)-2-((S)-3,3-Dimethyl-cyclohexylcarbamoyl)-4-fluoro-pyrrolidin-1-yl]-2-oxo-ethyl}-1H-pyrazolo[3,4-c]pyridine-3-carboxylic acid amide] | 2090 nM |
| CC1(C)CCC[C@@H](NC(=O)[C@@H]2C[C@@H](F)CN2C(=O)Cn2nc(C(N)=O)c3ccncc32)C1 [Example 71, 1-{2-[(2S,4R)-2-((R)-3,3-Dimethyl-cyclohexylcarbamoyl)-4-fluoro-pyrrolidin-1-yl]-2-oxo-ethyl}-1H-pyrazolo[3,4-c]pyridine-3-carboxylic acid amide] | 41 nM |
| CC1=CC(NC(=O)[C@@H]2C[C@H]3C[C@H]3N2C(=O)Cn2nc(C(N)=O)c3ccccc32)CCC1 (stereo partly drawn) [Example 74, 1-{2-[(1R,3S,5R)-3-(3-Methyl-cyclohex-2-enylcarbamoyl)-2-aza-bicyclo[3.1.0]hex-2-yl]-2-oxo-ethyl}-1H-indazole-3-carboxylic acid amide] | 132 nM |
| CCc1cc2c(C(N)=O)nn(CC(=O)N3C[C@H](F)C[C@H]3C(=O)N[C@@H]3CCCC(C)(C)C3)c2cn1 [Example 81, 1-{2-[(2S,4R)-2-((R)-3,3-Dimethyl-cyclohexylcarbamoyl)-4-fluoro-pyrrolidin-1-yl]-2-oxo-ethyl}-5-ethyl-1H-pyrazolo[3,4-c]pyridine-3-carboxylic acid amide] | 39 nM |
| CC1(C)CCC[C@@H](NC(=O)[C@@H]2[C@@H]3C[C@@H]3CN2C(=O)Cn2nc(C(N)=O)c3ccccc32)C1 [Example 88, 1-{2-[(1R,2S,5S)-2-((R)-3,3-Dimethyl-cyclohexylcarbamoyl)-3-aza-bicyclo[3.1.0]hex-3-yl]-2-oxo-ethyl}-1H-indazole-3-carboxylic acid amide] | 34 nM |
| CC1(C)CCC[C@H](NC(=O)[C@@H]2[C@@H]3C[C@@H]3CN2C(=O)Cn2nc(C(N)=O)c3ccccc32)C1 [Example 89, 1-{2-[(1R,2S,5S)-2-((S)-3,3-Dimethyl-cyclohexylcarbamoyl)-3-aza-bicyclo[3.1.0]hex-3-yl]-2-oxo-ethyl}-1H-indazole-3-carboxylic acid amide] | 2130 nM |
| CC(=O)c1nn(CC(=O)N2[C@@H]3C[C@@H]3C[C@H]2C(=O)N[C@H]2CCCC(C)(C)C2)c2ccc(OCc3ncccn3)cc12 [Example 97, (1R,3S,5R)-2-{2-[3-Acetyl-5-(pyrimidin-2-ylmethoxy)-indazol-1-yl]-acetyl}-2-aza-bicyclo[3.1.0]hexane-3-carboxylic acid ((S)-3,3-dimethyl-cyclohexyl)-amide] | 341 nM |
| CC(=O)c1nn(CC(=O)N2[C@@H]3C[C@@H]3C[C@H]2C(=O)N[C@@H]2CCCC(C)(C)C2)c2ccc(OCc3ncccn3)cc12 [Example 98, (1R,3S,5R)-2-{2-[3-Acetyl-5-(pyrimidin-2-ylmethoxy)-indazol-1-yl]-acetyl}-2-aza-bicyclo[3.1.0]hexane-3-carboxylic acid ((R)-3,3-dimethyl-cyclohexyl)-amide] | 11 nM |
